Values quoted from earlier work, collected in patent US20210023023A1, “LIPOSOMAL NUTRACEUTICAL COMPOSITIONS AND METHODS OF MAKING THE SAME” (VASAYO, LLC, priority 2019, published 2021).

Details: in studies

In the case of `C=C(C)[C@@H]1CCC(C)=C[C@H]1c1c(O)cc(CCCCC)cc1O` [CBD, cannabidiol], the “anti-inflammatory effects, potency relative to aspirin” value is listed as “several hundred times more potent than aspirin”.
